{"source": "paper PMC8391421", "about": "“Identification of Novel Positive Allosteric Modulators of Neurotrophin Receptors for the Treatment of Cognitive Dysfunction” (Cells, 2021)", "molecules": {"B1": {"name": "BDNF: recombinant human brain-derived neurotrophic factor (protein, UniProt P23560 19-247, looked up)", "Neurotrophic factor BDNF …": "APMKEANIRGQGGLAYPGVRTHGTLESVNGPKAGSRGLTSLADTFEHVIEELLDEDQKVRPNEENNKDADLYTSRVMLSSQVPLEPPLLFLLEEYKNYLDAANMSMRVRRHSDPARRGELSVCDSISEWVTAADKKTAVDMSGGTVTVLEKVPVSKGQLKQYFYETKCNPMGYTKEGCRGIDKRHWNSQCRTTQSYVRALTMDSKKRIGWRFIRIDTSCVCTLTIKRGR"}}, "key": {"[1]": {"target": "T1, TrkA (Homo sapiens, UniProt P04629)", "T1 construct": "host or cells: U2OS (human osteosarcoma), co-expressing p75 and SHC-1 fused to the enzyme acceptor", "T1 sequence (P04629 33-796)": "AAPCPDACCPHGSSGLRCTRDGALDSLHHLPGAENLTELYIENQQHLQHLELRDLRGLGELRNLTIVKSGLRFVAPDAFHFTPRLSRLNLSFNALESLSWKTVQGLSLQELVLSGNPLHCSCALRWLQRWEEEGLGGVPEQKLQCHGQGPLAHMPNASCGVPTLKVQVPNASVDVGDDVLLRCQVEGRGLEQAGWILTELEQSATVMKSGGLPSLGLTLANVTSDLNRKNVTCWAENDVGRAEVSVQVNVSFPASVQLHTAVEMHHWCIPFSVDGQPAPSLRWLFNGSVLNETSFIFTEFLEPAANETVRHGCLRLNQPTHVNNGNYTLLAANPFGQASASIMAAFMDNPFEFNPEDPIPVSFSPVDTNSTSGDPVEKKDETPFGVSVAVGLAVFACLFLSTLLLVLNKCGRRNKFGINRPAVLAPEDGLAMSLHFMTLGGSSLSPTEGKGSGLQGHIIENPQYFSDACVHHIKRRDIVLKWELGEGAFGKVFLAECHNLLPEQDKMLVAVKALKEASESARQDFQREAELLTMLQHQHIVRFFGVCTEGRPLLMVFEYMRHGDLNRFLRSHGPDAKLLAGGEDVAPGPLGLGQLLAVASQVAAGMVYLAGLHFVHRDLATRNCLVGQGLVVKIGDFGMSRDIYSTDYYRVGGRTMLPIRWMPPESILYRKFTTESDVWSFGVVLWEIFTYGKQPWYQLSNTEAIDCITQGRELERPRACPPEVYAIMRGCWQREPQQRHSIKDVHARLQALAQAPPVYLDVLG", "test": "TrkA PathHunter cell-based assay (U2OS-TrkA/p75)", "method": "(§1) U2OS cells were maintained subconfluent in EMEM supplemented with 10% FBS and penicillin/streptomycin/hygromycin and G418. One day prior to the experiment, 5000 cells of EMEM supplemented with 0.5% horse serum were seeded in each well of a 384-well white plate. The assay was performed as previously described. Briefly, the TrkA or TrkB cell-based PathHunter® assays use enzyme fragment complementation (EFC) technology for the complementation of two β-galactosidase (β-gal) fragments in order to study protein–protein interactions. Upon activation with ligand, TrkA or TrkB are phosphorylated on several tyrosine residues, including tyrosine 490, leading to an interaction with SHC-1. In the PathHunter® assays, the Trk-receptors are fused to an enzyme donor tag, and SHC-1 is fused to a larger part of β-gal called an enzyme acceptor. The interactions between the recombinant enzyme donor, i.e., the Trk-receptor, with an enzyme acceptor, i.e., SHC-1, leads to an active β-gal enzyme. The functional (complemented) β-gal will hydrolyze a substrate to generate a luminescence signal. The generated luminescence was read using an EnVision plate reader from PerkinElmer, Upplands Väsby, Sweden, or an ID5 plate reader from Molecular Devices, Berkshire, RG41 5TS UK. […] Min- and Max-control wells were included on each plate.\nBoth Toltrazuril and Ponazuril are registered veterinary products prescribed for parasitic infections in animals. […] The activation of Trk-receptors leads to an intracellular interaction between the Trk-receptor and SHC-1 and thereby to the complementation of β-gal, which will render in a functional enzyme. β-gal will hydrolyze a substrate to generate luminescence, which is proportional to the number of activated receptors."}, "[2]": {"target": "T2, TrkB (Homo sapiens, UniProt Q16620)", "T2 construct": "host or cells: U2OS (human osteosarcoma), co-expressing p75 and SHC-1 fused to the enzyme acceptor", "T2 sequence (Q16620 32-822)": "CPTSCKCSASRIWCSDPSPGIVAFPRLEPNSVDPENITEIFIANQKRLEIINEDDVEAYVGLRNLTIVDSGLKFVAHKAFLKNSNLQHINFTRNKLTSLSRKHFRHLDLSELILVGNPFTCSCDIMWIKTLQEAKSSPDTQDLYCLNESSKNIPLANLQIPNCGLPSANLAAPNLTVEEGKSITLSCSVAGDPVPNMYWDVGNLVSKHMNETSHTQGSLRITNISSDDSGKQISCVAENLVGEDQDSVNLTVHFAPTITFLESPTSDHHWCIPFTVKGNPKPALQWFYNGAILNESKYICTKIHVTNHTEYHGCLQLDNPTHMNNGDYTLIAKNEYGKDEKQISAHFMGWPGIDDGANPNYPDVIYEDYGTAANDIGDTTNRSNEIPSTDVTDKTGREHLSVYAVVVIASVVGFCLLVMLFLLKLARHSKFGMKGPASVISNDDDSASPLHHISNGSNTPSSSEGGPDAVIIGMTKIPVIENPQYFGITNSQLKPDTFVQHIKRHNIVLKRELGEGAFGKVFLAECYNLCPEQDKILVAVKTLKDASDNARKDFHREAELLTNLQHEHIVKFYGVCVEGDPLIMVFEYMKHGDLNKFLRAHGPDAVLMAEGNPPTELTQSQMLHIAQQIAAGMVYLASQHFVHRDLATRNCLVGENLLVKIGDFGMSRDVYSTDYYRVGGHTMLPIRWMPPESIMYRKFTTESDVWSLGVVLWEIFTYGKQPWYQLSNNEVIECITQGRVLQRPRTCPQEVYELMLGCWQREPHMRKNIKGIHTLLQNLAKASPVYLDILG", "test": "TrkB PathHunter cell-based assay (U2OS-TrkB/p75)", "method": "as §1, with “each plate. A compound was considered a hit if the percent activation was more than 50% and if the value was two standard deviations higher than the mean value of all of the samples on the plate. The average activation of all of samples on 10 different 384-well plates was 31%. […] Due to the risk of adverse events with the systemic administration of TrkA agonists, the screen and the re-screen processes were designed to increase the likelihood of identifying the positive modulators of NGF-signaling rather than identifying TrkA agonists. Based on the results of the re-screen, in combination with the physical–chemical properties of the molecules, a collection of hits was used for the EC50 determinations.” for “each plate.”\nBoth Toltrazuril and Ponazuril are registered veterinary products prescribed for parasitic infections in animals. […] The cellular response to NGF or BDNF was measured using PathHunter® assays employing β-gal enzyme fragment complementation technology. The activation of Trk-receptors leads to an intracellular interaction between the Trk-receptor and SHC-1 and thereby to the complementation of β-gal, which will render in a functional enzyme. β-gal will hydrolyze a substrate to generate luminescence, which is proportional to the number of activated receptors. […]"}, "[3]": {"tested_on": "Wistar rats", "test": "Novel object recognition", "format": "in vivo, rat", "details": "1 mg/kg", "method": "The novel object recognition model was conducted by Suven Life Sciences Ltd. (Hyderabad, India) using male Wistar rats (n = 12/group). This study was performed in compliance with the requirements and in-house animal care and usage policy of the Institutional Animal Ethics Committee (IAEC). The experiment was conducted over a 5-day period. For the first 3 days, ACD855 or vehicle were administered to the animals. On Day 4, the rats were acclimatized to their respective arenas for 20 min and then returned to their home cages for the administration of ACD855 or vehicle (1 h post habituation phase). On Day 5, the rats were administered vehicle or ACD855 1 h prior to trial, donepezil (1 mg/kg) was injected 30 min prior to trial, and scopolamine (1 mg/kg) was injected 20 min prior to trial. 20 min after scopolamine administration, the rats were subjected to the familiarization phase. The experiment was performed as described by Lueptow. The discriminative index for the drug-treated groups was compared to that of the vehicle group by use of the Kruskal–Wallis test. The discriminative index is the ratio of time spent exploring the novel object divided by the sum of the time spent exploring the novel object and a familiar object in the choice trial."}, "[4]": {"tested_on": "C57BL/6J mice", "test": "Passive avoidance task", "format": "in vivo, mouse", "details": "low doses given by themselves; physostigmine 0.025 mg/kg", "method": "The passive avoidance (PA) task is an associate learning paradigm that is based on Pavlovian fear-conditioning and instrumental conditioning and conducted as previously described in male C57BL/6J mice (n = 7–8/group) from Charles River Laboratories, Sulzfeld, Germany. Vehicle or ACD855 (1, 3 or 10 mg/kg), formulated in 20% DMSO in 0.1 M sodium phosphate buffer pH 8.0, was administered daily (Days 1–4) through s.c. injections (4 mL/kg body weight). ACD856 (0.1, 0.3, 1 or 3 mg/kg) was administered by a single s.c. dose on the training day (Day 4). ACD855, ACD856, ANA-12 (0.5 mg/kg, from Sigma Aldrich, Stockholm, Sweden), physostigmine (0.025 mg/kg, from Sigma Aldrich, Stockholm, Sweden), or vehicle was administered 60 min prior to training, except for when addressing the effects on consolidation, in which case, ACD856 was dosed 5 min after the training session on day 4. Moreover, on the training day (Day 4), scopolamine or the NMDA-antagonist MK-801 (both from Sigma Aldrich, Stockholm, Sweden) at 0.3 mg/kg or vehicle was administered once s.c. 30 min prior to training. No compound was administered on the test day (Day 5), except for when addressing effects on retrieval, in which case, ACD856 was dosed 30 min prior to testing on day 5. Retention latencies and time spent in the bright compartment were determined 24 h after training (Day 5)."}, "[5]": {"tested_on": "Shaffer collaterals-CA1 pathway, hippocampal slices", "test": "Facilitation of long-term potentiation in rat hippocampal slices", "details": "50 ng/mL; n = 9 slices from 7 rats", "method": "Male Sprague Dawley rats (4–5 weeks old) from Charles River Laboratories, Sulzfeld, Germany, were used in these experiments. Rats were deeply anesthetized using isoflurane and decapitated soon after the disappearance of the corneal reflexes. The brains were removed and placed in ice-cold standard artificial CSF (aCSF) solution (124 mM NaCl, 30 mM NaHCO3, 10 mM glucose, 1.25 mM NaH2PO4, 3.5 mM KCl, 1 mM MgCl2, 2 mM CaCl2). Hippocampal horizontal sections (400 µm thick) were prepared using a Leica VT1200S vibratome (Leica Microsystems, Kista, Sweden). Immediately after slicing, sections were transferred into an interface incubation chamber filled with standard aCSF. The chamber was held at 34 °C during the slicing period and was subsequently allowed to cool down to room temperature. […] The facilitation of long-term potentiation (LTP) was monitored in the Shaffer collaterals (SC)-CA1 pathway in the hippocampus. […] Data were normalized with respect to the mean fEPSP slope recorded during the last 10 min of the baseline period.\nIt has been well-described that the transient, short-term plasticity of synaptic strength induced by a weak stimulation in hippocampal slices can turn into long-term potentiation (LTP) through the exogenous application of BDNF [71, 72, 73]. […] In the control slices, the recorded potentiation decreased to the baseline level after 60 min. […]"}}}
{"molecule": "N#CC(c1ccc(Cl)cc1)c1c(Cl)cc(-n2ncc(=O)[nH]c2=O)cc1Cl", "note": "(centres unmarked) [Diclazuril]", "values": [{"measurement": "activity in the TrkA assay", "setting": "[1]", "result": "not active"}, {"measurement": "activity in the TrkB assay", "setting": "[2]", "result": "not active"}]}
{"molecule": "COc1cc2c(cc1OC)C(=O)C(CC1CCN(Cc3ccccc3)CC1)C2", "note": "(centres unmarked) [Donepezil]", "values": [{"measurement": "time with novel object vs familiar object after scopolamine", "setting": "[3]", "result": "spent significantly more time with the novel object"}]}
{"molecule": "CNC(=O)Oc1ccc2c(c1)[C@]1(C)CCN(C)[C@@H]1N2C", "note": "[physostigmine]", "values": [{"measurement": "effect of low dose alone on scopolamine-induced memory impairment", "setting": "[4]", "result": "no significant effect"}]}
{"molecule": "B1", "values": [{"measurement": "long-lasting potentiation of evoked synaptic responses (fEPSP slope), fold increase", "setting": "[5]", "result": "1.22 ± 0.04", "unit": "fold"}]}
